# Laboratory results reported in ChEMBL document CHEMBL1240301, “Assignment of protein function in the postgenomic era” (Nat Chem Biol, 2005).
# Assays:
# [1] = biological target: Calcium/calmodulin-dependent protein kinase type II subunit alpha (Homo sapiens, UniProt Q9UQM7, F89G); assay: Inhibition of CAMK2 F89G mutant
# [2] = biological target: Cyclin-dependent kinase 2 (Homo sapiens, UniProt P24941, F80G); assay: Inhibition of CDK2 F80G mutant
# [3] = Inhibition of c-Fyn T339G mutant
# [4] = Inhibition of v-Src kinase I338G mutant
# [5] = biological target: Cyclin-dependent kinase 2 (Homo sapiens, UniProt P24941); assay: Inhibition of wild type CDK2
# [6] = Inhibition of wild-type v-Src
# [7] = Inhibition of wild type CAMK2
# [8] = biological target: Tyrosine-protein kinase ABL1 (Homo sapiens, UniProt P00519); assay: Inhibition of wild type c-Abl
# [9] = biological target: Tyrosine-protein kinase ABL1 (Homo sapiens, UniProt P00519, T315A); assay: Inhibition of c-Abl T315A mutant
# [10] = biological target: Tyrosine-protein kinase Fyn (Homo sapiens, UniProt P06241); assay: Inhibition of wild type c-Fyn
# Tyrosine-protein kinase Fyn, sequence (P06241 whole entry): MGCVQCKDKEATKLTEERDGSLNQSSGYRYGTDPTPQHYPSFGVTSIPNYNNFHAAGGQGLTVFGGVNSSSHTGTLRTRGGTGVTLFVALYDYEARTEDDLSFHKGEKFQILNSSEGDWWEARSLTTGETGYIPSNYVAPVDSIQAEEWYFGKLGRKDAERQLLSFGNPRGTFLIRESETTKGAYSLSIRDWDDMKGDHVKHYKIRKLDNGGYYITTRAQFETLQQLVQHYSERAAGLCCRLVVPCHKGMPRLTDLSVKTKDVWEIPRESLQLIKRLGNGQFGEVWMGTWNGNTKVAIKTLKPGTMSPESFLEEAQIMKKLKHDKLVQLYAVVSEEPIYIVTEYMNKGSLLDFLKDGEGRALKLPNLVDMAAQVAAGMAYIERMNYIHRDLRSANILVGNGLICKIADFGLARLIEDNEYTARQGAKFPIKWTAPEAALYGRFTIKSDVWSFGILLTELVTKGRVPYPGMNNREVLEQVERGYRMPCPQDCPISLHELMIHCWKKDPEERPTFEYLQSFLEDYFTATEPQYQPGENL
# Tyrosine-protein kinase ABL1 (Homo sapiens, UniProt P00519, T315A), sequence (P00519 whole entry T315A): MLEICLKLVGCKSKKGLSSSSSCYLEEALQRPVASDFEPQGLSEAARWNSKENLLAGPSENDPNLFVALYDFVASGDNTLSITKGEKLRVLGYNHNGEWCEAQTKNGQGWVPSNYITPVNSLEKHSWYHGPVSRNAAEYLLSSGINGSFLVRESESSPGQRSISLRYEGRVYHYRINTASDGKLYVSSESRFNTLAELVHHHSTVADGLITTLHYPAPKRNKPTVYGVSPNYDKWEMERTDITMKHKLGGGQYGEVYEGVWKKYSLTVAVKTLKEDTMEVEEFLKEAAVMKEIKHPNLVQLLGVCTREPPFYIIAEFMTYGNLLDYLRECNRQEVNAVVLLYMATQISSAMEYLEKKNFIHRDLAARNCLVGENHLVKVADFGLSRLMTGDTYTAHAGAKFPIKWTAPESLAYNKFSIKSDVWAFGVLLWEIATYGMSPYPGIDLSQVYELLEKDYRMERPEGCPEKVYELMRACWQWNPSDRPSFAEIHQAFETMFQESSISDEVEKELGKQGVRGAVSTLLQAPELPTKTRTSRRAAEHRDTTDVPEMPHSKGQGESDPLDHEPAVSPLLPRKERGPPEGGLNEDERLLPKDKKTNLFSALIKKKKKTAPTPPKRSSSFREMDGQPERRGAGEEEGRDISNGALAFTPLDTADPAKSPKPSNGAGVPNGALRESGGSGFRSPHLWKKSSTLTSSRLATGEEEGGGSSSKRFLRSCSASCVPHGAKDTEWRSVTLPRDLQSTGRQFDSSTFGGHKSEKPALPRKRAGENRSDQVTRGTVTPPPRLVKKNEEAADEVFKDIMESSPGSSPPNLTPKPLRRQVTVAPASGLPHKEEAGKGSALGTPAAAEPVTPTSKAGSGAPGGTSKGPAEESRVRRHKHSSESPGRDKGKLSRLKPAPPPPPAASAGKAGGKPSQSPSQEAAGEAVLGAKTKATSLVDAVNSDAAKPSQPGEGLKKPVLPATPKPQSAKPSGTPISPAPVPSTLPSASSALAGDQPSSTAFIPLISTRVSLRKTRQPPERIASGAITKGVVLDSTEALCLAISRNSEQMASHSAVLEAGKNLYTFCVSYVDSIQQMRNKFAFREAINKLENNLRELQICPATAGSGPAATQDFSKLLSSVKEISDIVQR
# Calcium/calmodulin-dependent protein kinase type II subunit alpha, sequence (Q9UQM7 whole entry F89G): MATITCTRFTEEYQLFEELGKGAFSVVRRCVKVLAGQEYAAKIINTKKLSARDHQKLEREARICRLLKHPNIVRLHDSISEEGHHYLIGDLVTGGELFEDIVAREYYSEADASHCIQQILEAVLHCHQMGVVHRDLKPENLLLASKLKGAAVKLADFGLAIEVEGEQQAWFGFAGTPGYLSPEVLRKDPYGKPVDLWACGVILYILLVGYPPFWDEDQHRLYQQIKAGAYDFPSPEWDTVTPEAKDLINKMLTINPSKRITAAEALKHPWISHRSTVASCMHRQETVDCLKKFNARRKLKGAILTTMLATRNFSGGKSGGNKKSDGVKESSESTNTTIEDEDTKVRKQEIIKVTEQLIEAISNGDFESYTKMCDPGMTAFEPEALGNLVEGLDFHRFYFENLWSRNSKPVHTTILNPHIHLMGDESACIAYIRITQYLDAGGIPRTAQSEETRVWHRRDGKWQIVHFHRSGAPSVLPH
# Tyrosine-protein kinase ABL1 (Homo sapiens, UniProt P00519), sequence (P00519 whole entry): as the sequence (P00519 whole entry T315A) above, with A315T counted along it
compound,measurement,setting,value
CC(C)(C)n1nc(-c2cccc3ccccc23)c2c(N)ncnc21,IC50,[1],97 nM
same,IC50,[2],15 nM
same,IC50,[3],6.5 nM
same,IC50,[4],1.5 nM
same,IC50,[5],18000 nM
same,IC50,[6],1000 nM
same,IC50,[7],22000 nM
CC(C)(C)n1nc(Cc2cccc3ccccc23)c2c(N)ncnc21,IC50,[8],3400 nM
same,IC50,[3],3.2 nM
same,IC50,[4],4.3 nM
same,IC50,[5],29000 nM
same,IC50,[9],120 nM
same,IC50,[6],28000 nM
same,IC50,[7],24000 nM
same,IC50,[10],1000 nM
